Assay [1] concerns the target VQIVYK (peptide derived from third microtubule binding repeat of tau) (Homo sapiens, UniProt P10636). Briefly: In vitro VQIVYK (tau-like) aggregation assay, Thioflavin S. The format is biochemical. The settings on record: peptides 10^−17 M -10^−9 M; 100 μM VQIVYK, polyglutamate 250 μM, MOPS pH 6.5, 7 days; compared with NAP. The protocol:
VQIVYK aggregation: Tau is a highly soluble protein. The unfolded protein lacks a defined 3D structure. Its main role is stabilization of microtubules in neuronal axons. Tau contains three or four microtubule binding repeats. ^306VQIVYK^311 is a peptide derived from the beginning of the third microtubule binding repeat of tau, which is present in all tau variants.
In vitro aggregation assay was performed in the presence of polyglutamic acid (or heparin), VQIVYK aggregates were further detected by Thioflavin S (excitation 485 nm and emission 535) with emission intensity greatly increasing.
First, different concentrations of polyglutamic acid (0,100 μM, 250 μM, 400 μM) VQIVYK and either […] (NH4Ac) 50 mM pH 6.5 or MOPS 20 mM pH 6.5 and Thioflavin S 5 μM were mixed together and incubated at room temperature. The extent of aggregation was read at excitation 485 nm and emission 535 nm using the infinite 200 system with the Magellan program.
In order to avoid reading self peptide aggregation as VQIVYK aggregation, for each peptide concentration, the fluorescence of the peptide solution without VQIVYK was subtracted from the fluorescence of each peptide concentration containing VQIVYK.

Assay [2] has as its system cerebral cortical astrocytes intoxicated with ZnCl2. Kind of assay: MTS assay: survival of astrocytes following intoxication with ZnCl2. The format is cell-based, mice. The protocol: Cell cultures were prepared as previously described (McCarthy KD, de Vellis J., J. Cell Biol., 85:890-902 (1980); Gozes I et al., J. Pharmacol. Exp. Ther., 257:959-66 (1991)). Newborn mice (Harlan Biotech Israel Ltd., Rehovot, Israel) were sacrificed by decapitation and the brain was removed. The cortex was dissected and meninges were removed. The tissue was minced with scissors and placed in Hank's balanced salts solution X1 (HBSS, Biological Industries, Beit Haemek, Israel), 15 mM HEPES Buffer pH 7.3 (Biological Industries, Beit Haemek, Israel) and 0.25% trypsin (Biological Industries, Beit Haemek, Israel) in an incubator at 37° C. 10% CO2 for 20 minutes. The cells were then placed in 8 ml of solution D1 containing 10% heat inactivated fetal calf serum (Biological Industries, Beit Haemek, Israel), 0.1% gentamycin sulphate solution (Biological Industries, Beit Haemek, Israel) and 0.1% penicillin-streptomycin-nystatin solution (Biological Industries, Beit Haemek, Israel) in Dulbecco's modified Eagle's medium (DMEM, Sigma, Rehovot, Israel). The cells were allowed to settle, and were then transferred to a new tube containing 2.5 ml of D1 and triturated using a Pasteur pipette. The process was repeated twice more. Once all the cells were suspended, cell density was determined using a hemocytometer (Neubauer improved, Germany) and 1×10^6 cells/15 ml D1 were inoculated into each 75 cm^2 flask (Corning, Corning, N.Y., USA). Cells were incubated at 37° C. 10% CO2. The medium was changed after 24 hours and cells were grown until confluent (one week).
The flasks containing the cerebral cortical astrocytes were shaken to dislodge residual neurons and oligodendrocytes that may be present. Flasks were then washed with 10 ml cold HBSSx1, HEPES15 mM. 5 ml versene-trypsin solution (BioLab, Jerusalem, Israel) was added to each flask and the flasks were incubated at room temperature for 5 minutes to remove astrocytes. The flasks were then shaken to dislodge the cells. The versene-trypsin solution was neutralized with 5 ml D1. The cell suspension was collected and centrifuged at 100 g for 10 minutes. The supernatant was removed and the cells resuspended in D1. The cells were plated in 96 well plates (Corning, Corning, N.Y., USA) (each flask to 2 plates) and incubated until confluent at 37° C. 10% CO2.
The survival of astrocytes following intoxication with ZnCl2 was tested using the MTS assay. One week after sub-culturing the astrocytes into 96-well plates, the astrocyte growth medium was aspirated and fresh medium containing 200μM ZnCl2 and ascending concentrations of NATLSHIHQ (SEQ ID NO:4) or STPTAIPQ (SEQ ID NO:6)(concentration range: 10^−16-10^−7M) was added to the cells. The cells were incubated for 4 hours in 10% CO2 at 37°C., followed by an MTS assay using Celltiter 96 Aqueous non-radioactive cell proliferation assay (Promega, Madison, WI, USA) which was performed according to the manufacturer's instructions and read in an ELISA plate reader at 490nm.
Background: Tetrazolium dyes change colour on reduction, which living cells bring about.

Assay [3] relates to rTg(tauP301L)4510 mouse (Tau-Tg). Briefly: Brain-Body weight ratio in Tau transgenic mice. The format is in vivo. The protocol:
The experiment included three groups: Tau-Tg female mice, 10-month-old, treated by intranasal administration of NAT 2 μg/5 μl/mouse/day (n=5) or vehicle (SW/mouse/day) (n=6), and as control, non-Tg female littermates treated by vehicle (SW/mouse/day) (n=7).
Treatment started at 9 months of age and continued daily for a period of 5 weeks. At each test NAT was applied 1 h before the test begun.
All mice were weighed at the beginning and end of the experiment and whole brain weight was measured before the brain dissection.
All mice were weighed before first drug application and again before the dissection (while still alive). […] Whole brain was weighed before the brain sections were separated and no significant statistical differences between the groups were found. However, Brain-Body weight ratio may be used to measure brain mass decrease possibly indicating neuronal degradation (Bassan et al., (2009) J Matern Fetal Neonatal Med, 1-6).

Where “and” joins values, the source holds several entries; their conditions need not be identical. Equal entries are not always repeated. Entries after “also recorded” stand apart in the source; their conditions may differ.

NATLSIHQ (synthetic NAP-like peptide): the “inhibition of VQIVYK (tau) aggregation” value in assay [1] is “superior to NAP; also recorded: superior effect than NAPVSIPQ”. Besides, the “effective concentrations on astrocyte survival: Astrocytes (200 μM ZnCl2)” value in assay [2] (MTS assay, 4 hours, tested 10^−16-10^−7M, significance vs negative control in cell) is 10^−12 M and 10^−8 M and 10^−7 (p < 0.0005) M and 10^−10 (p < 0.05) M. In assay [2] (astrocytes, ZnCl2), the “activity in neuroprotection assay” value is reported as “active”. The “efficacy compared between peptides” value in assay [2] (survival of astrocytes) is reported as “greater than that of STPTAIPQ”. In addition, the “protection from neurodegeneration (Brain-Body weight ratio)” value in assay [3] (TAU-Tg mice, intranasal NAT, listed as NAT) is “protected the brain from neurodegeneration; also recorded: protective effect”. For the same sequence, the Brain-Body weight ratio in assay [3] (TAU-Tg+NAT, intranasal daily 5 weeks, mean and S.E., p=0.030 vs vehicle treated TAU-Tg) is 0.0148+0.0009.

The values above are taken from patent US8324166B2, “Neuroprotection using NAP-like and SAL-like peptide mimetics” (Ramot at Tel-Aviv University, Ltd., priority 2007, dated 2012).
